In brackets after ≈: the same amount, converted by molar mass.
Legend:
Assay in all cases: In Vitro Minimum Inhibitory Concentration
Assay type in all cases: cell-based
[1] = test system: Acinetobacter baumannii
Description: (§1) Subsequent dilutions had the concentration calculated in ppm. Each concentration was challenged with an equal volume of microbial inoculums. After incubation the lowest concentration showing “No-Growth” was recorded as the Minimum Inhibitory Concentration.

[2] = test system: Bacteroides fragilis
Description: as §1

[3] = test system: Candida albicans
Description: as §1

[4] = test system: Candida parapsilosis; conditions: Lodderomyces parapsilosis; clinical isolate 040400Cp2
Description: as §1

[5] = test system: Candida tropicalis; conditions: ATCC750, ATCC 750
Description: as §1

[6] = test system: Enterobacter aerogenes; conditions: Klebsiella aerogenes
Description: as §1

[7] = test system: Enterococcus faecalis
Description: as §1

[8] = test system: Enterococcus faecium
Description: as §1

[9] = test system: Escherichia coli; conditions: for MIC: Escherichia coli
Description: as §1

[10] = test system: Haemophilus influenzae
Description: as §1

[11] = test system: Klebsiella oxytoca
Description: as §1

[12] = test system: Klebsiella pneumoniae
Description: as §1

[13] = test system: Micrococcus luteus; conditions: ATCC7468, ATCC 7468
Description: as §1

For `CCO` [70% ethyl alcohol, ethyl alcohol], the MIC ([1]; ATCC19606, ATCC 19606, trypticase soy broth) was 4380 µg/mL (≈ 95 mM), the MIC ([1]; clinical isolate 061901 Ab1) was 8750 µg/mL (≈ 190 mM) and the MIC ([2]; ATCC25285, ATCC 25285) was 8750 µg/mL (≈ 190 mM). It also gave an MIC ([2]; clinical isolate 061901Bf2) of 8750 µg/mL (≈ 190 mM), an MIC ([3]; ATCC10231, ATCC 10231) of 17500 µg/mL (≈ 380 mM) and an MIC ([3]; clinical isolate 040400Ca2) of 17500 µg/mL (≈ 380 mM). For the same molecule, the MIC [4] was 17500 µg/mL (≈ 380 mM), the MIC [5] was 17500 µg/mL (≈ 380 mM) and the MIC ([6]; ATCC13048, ATCC 13048) was 8750 µg/mL (≈ 190 mM). It also gave an MIC ([6]; clinical isolate 040400Ea1) of 8750 µg/mL (≈ 190 mM), an MIC ([7]; ATCC29212, ATCC 29212) of 8750 µg/mL (≈ 190 mM) and an MIC ([7]; clinical isolate 040400Esp17) of 8750 µg/mL (≈ 190 mM). For the same molecule, the MIC ([8]; ATCC51559, ATCC 51559) was 8750 µg/mL (≈ 190 mM), the MIC ([8]; clinical isolate 061901Efm1) was 8750 µg/mL (≈ 190 mM) and the MIC ([9]; ATCC11229, ATCC 11229) was 8750 µg/mL (≈ 190 mM). The MIC ([9]; ATCC25922, ATCC 25922) was 8750 µg/mL (≈ 190 mM), the MIC ([9]; clinical isolate 051599Ec) was 8750 µg/mL (≈ 190 mM) and the “Minimum Inhibitory Concentration” value ([9]; clinical isolate 070399Ec) was 8750 ppm. For the same molecule, the MIC ([10]; ATCC19418, ATCC 19418) was 5830 µg/mL (≈ 127 mM), the MIC ([10]; clinical isolate 121699Hi) was 5830 µg/mL (≈ 127 mM) and the MIC ([11]; ATCC43165, ATCC 43165) was 8750 µg/mL (≈ 190 mM). It also gave an MIC ([11]; clinical isolate 061901Ko1) of 8750 µg/mL (≈ 190 mM), an MIC ([12]; ATCC13883, ATCC 13883) of 4380 µg/mL (≈ 95 mM) and an MIC ([12]; clinical isolate 06190Kpn1) of 8750 µg/mL (≈ 190 mM). The MIC [13] was 8750 µg/mL (≈ 190 mM).

— patent US20070087744A1, “METHOD FOR REDUCING THE TIME DELAY IN A TELEPHONE SYSTEM” (priority 2003, published 2007)
